Source: patent US20220396673A1, “METHOD FOR HYDRATING WATER-INSOLUBLE POLYMER CAPABLE OF CONTAINING INTERMEDIATE WATER” (KYUSHU UNIVERSITY, NATIONAL UNIVERSITY CORPORATION, priority 2019, published 2022)

Assay: Incorporation of fat-soluble drug into white turbid aggregate containing PMEA
Conditions: diluted in PBS, 37° C., fluorescence microscopy after 3 days
Procedure: The dialysis was carried out for 3 days while changing the purified water until the coloring of the external solvent by the elution of DOX was sufficiently removed.
In addition, the white turbid aggregate was diluted in PBS, allowed to stand in an incubator at 37° C., and then the doxorubicin content was confirmed by fluorescence microscopy (after 3 days).

COc1cccc2c1C(=O)c1c(O)c3c(c(O)c1C2=O)C[C@@](O)(C(=O)CO)C[C@@H]3O[C@H]1C[C@H](N)[C@H](O)[C@H](C)O1 [doxorubicin]
doxorubicin content of the aggregate after storage: confirmed
